ChEMBL document CHEMBL4706491, “Discovery of novel N-sulfonamide-tetrahydroquinolines as potent retinoic acid receptor-related orphan receptor γt inverse agonists for the treatment of autoimmune diseases” (Eur J Med Chem, 2020)

Key:
in vitro [1] = details: CD-1, mouse, liver
in vitro [2] = details: CD-1, mouse, liver microsomes
[3] = Half life in CD-1 mouse liver microsomes at 1 uM measured up to 60 mins in presence of NADPH by LC-MS/MS analysis
[4] = target: T1, Nuclear receptor ROR-gamma (Homo sapiens, UniProt P51449)
T1 sequence (P51449 whole entry): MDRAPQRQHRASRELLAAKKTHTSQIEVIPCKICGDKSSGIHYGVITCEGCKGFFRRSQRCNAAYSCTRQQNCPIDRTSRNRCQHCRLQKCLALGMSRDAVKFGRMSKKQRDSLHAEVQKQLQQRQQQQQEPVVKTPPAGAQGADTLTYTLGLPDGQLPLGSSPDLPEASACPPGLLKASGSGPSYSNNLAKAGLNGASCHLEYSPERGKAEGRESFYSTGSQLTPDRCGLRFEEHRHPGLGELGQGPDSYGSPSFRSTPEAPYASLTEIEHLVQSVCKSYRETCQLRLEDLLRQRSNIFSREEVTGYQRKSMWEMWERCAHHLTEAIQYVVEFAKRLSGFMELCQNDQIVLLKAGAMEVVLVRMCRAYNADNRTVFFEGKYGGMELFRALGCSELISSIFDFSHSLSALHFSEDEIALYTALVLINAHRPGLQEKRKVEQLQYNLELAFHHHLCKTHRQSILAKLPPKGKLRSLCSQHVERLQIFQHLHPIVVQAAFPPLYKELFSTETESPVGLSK

[5] = target: T1, Nuclear receptor ROR-gamma; assay: Agonist activity at APC-labeled RORgammat LBD (unknown origin) incubated for 1 hr in presence of europium-labeled co-activator SRC1 by FRET assay

SMILES | XC50 [4] [µM] | also measured
CC(=O)N1CCN(c2ccc(CN(C3CCC3)S(=O)(=O)Cc3ccccc3)cc2)CC1 | – | CLint scaled at 1 h, 1 µM (in vitro [1]): 2420 mL/min/kg; microsomal CLint at 1 h, 1 µM (in vitro [2]): 612 µL/min/mg; half-life at 1 h, 1 µM [3]: 2.3 min
CC(=O)N1CCN(c2ccc3c(c2)CCCN3S(=O)(=O)N(C)CCCc2ccccc2)CC1 | 7.23 | –
CC(=O)N1CCN(c2ccc3c(c2)CCCN3S(=O)(=O)N(C)Cc2cccc(F)c2)CC1 | 0.324 | –
CC(=O)N1CCN(c2ccc3c(c2)CCCN3S(=O)(=O)CCc2ccccc2)CC1 | 0.906 | –
CC(=O)N1CCN(c2ccc3c(c2)CCCN3S(=O)(=O)N(C)CCc2ccccc2)CC1 | 0.91 | –
CC(=O)N1CCN(c2ccc3c(c2)CCCN3S(=O)(=O)N(C)Cc2cccc(Cl)c2)CC1 | 0.104 | –
CC(=O)N1CCN(c2ccc3c(c2)CCCN3S(=O)(=O)N(C)Cc2ccc(C(F)(F)F)cc2)CC1 | 1.55 | –
CC(=O)N1CCN(c2ccc3c(c2)CCCN3S(=O)(=O)N(C)Cc2ccccc2C)CC1 | 0.143 | –
CC(=O)N1CCN(c2ccc3c(c2)CCCN3S(=O)(=O)N(C)Cc2cccc(C)c2)CC1 | 0.768 | –
CC(=O)N1CCN(c2ccc3c(c2)CCCN3S(=O)(=O)N(C)Cc2ccccc2Cl)CC1 | 0.086 | –
CC(=O)N1CCN(c2ccc3c(c2)CCCN3S(=O)(=O)c2ccccc2)CC1 | – | EC50 [5]: 4.84 µM
